Activity calls are given as the source filed them.
How the values were obtained:
Cytochrome P450 3A4 = Cytochrome P450 3A4 (Homo sapiens, UniProt P08684); conditions: Potency;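 also: confirmatory qHTS run detecting inhibitors and substrates of CYP3A4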
Cytochrome P450 2C19 = Cytochrome P450 2C19 (Homo sapiens, UniProt P33261); test: qHTS Assay for Inhibitors and Substrates of Cytochrome P450 2C19. [Related pubchem assays: 410 ]; assay type: ADME; conditions: read-out: Potency
[1] = target: Aryl hydrocarbon receptor (Homo sapiens, UniProt P35869); test: Luminescence-based cell-based high throughput dose response assay for activators of the Aryl Hydrocarbon Receptor (AHR). [Related pubchem assays: 2796 (Primary screen (AHR activators in singlicate)), 2845 (Confirmation screen (AHR activators in triplicate)), 434939 (Counterscreen (PXR activators in triplicate)), 2804 (Summary (AHR activators))]; assay type: ADME
Sequence of Aryl hydrocarbon receptor (P35869 whole entry): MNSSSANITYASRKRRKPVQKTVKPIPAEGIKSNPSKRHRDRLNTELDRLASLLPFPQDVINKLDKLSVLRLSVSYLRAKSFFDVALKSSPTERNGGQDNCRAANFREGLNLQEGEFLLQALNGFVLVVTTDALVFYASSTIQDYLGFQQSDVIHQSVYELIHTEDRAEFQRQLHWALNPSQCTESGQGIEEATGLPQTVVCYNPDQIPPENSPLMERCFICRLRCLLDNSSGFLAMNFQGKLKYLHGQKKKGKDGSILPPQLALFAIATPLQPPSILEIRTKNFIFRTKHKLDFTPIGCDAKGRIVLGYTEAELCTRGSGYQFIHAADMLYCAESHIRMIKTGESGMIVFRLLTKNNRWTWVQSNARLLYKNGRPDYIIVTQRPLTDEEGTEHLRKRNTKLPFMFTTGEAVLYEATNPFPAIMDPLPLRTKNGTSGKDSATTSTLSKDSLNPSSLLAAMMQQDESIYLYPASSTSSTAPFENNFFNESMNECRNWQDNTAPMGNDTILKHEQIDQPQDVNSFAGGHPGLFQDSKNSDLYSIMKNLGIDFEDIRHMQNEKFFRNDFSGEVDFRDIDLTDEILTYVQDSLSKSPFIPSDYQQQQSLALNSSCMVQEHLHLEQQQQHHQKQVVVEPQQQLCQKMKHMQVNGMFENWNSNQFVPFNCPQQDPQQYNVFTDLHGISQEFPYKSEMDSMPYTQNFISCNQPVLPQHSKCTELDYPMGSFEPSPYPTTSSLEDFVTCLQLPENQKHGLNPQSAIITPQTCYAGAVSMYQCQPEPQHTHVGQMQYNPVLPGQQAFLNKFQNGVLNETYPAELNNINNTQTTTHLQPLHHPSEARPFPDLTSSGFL

[2] = target: T1, Zinc finger protein mex-5 (Caenorhabditis elegans, UniProt Q9XUB2); test: MEX-5/TCR-2 RNA interaction inhibitors, dose response, biochemical, C. elegans, fluorescence polarization (AID 1960)
T1 sequence (Q9XUB2 whole entry): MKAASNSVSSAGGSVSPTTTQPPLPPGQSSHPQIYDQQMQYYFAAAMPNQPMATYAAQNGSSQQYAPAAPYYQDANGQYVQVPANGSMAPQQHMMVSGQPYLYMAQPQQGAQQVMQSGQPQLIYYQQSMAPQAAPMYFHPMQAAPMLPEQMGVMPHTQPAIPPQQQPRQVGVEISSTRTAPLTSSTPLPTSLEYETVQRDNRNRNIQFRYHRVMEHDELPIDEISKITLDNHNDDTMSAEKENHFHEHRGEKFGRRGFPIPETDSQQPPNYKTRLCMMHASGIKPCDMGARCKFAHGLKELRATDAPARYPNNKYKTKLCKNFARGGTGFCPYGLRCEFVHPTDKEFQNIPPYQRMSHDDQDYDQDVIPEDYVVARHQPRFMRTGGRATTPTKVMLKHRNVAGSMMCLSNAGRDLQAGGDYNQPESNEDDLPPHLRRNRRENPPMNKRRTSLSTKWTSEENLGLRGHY

[3] = target: T2, RNA-binding protein pos-1 (Caenorhabditis elegans, UniProt G5EF15); test: inhibitors of POS-1/mex-3 RNA binding, dose response, biochemical, fluorescence polarization (AID 1964);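 also: purified POS-1 fused to maltose binding protein made in E. coli; potency of compounds blocking POS-1 binding to fluorescent RNA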
T2 sequence (G5EF15 whole entry): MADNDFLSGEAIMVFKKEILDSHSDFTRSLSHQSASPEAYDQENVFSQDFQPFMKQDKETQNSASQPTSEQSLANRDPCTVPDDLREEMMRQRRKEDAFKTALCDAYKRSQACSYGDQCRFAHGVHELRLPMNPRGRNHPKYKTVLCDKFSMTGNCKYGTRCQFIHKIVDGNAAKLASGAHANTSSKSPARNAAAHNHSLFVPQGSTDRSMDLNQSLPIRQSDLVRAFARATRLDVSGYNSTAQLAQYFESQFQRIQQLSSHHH

[4] = target: Protein-tyrosine kinase 2-beta (Homo sapiens, UniProt Q14289);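 also: potency of inhibitors of PYK2 kinase phosphorylation of poly-GT substrate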
[5] = target: Arf-GAP with SH3 domain, ANK repeat and PH domain-containing protein 1 (Homo sapiens, UniProt Q9ULH1); assay type: functional;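 also: biochemical fluorescence polarization dose–response screen measuring inhibition of ASAP1; ASAP1 GAP domain stimulating GTP hydrolysis by truncated human ARF1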
Sequence of Arf-GAP with SH3 domain, ANK repeat and PH domain-containing protein 1 (Q9ULH1 whole entry, the tested form may be a part): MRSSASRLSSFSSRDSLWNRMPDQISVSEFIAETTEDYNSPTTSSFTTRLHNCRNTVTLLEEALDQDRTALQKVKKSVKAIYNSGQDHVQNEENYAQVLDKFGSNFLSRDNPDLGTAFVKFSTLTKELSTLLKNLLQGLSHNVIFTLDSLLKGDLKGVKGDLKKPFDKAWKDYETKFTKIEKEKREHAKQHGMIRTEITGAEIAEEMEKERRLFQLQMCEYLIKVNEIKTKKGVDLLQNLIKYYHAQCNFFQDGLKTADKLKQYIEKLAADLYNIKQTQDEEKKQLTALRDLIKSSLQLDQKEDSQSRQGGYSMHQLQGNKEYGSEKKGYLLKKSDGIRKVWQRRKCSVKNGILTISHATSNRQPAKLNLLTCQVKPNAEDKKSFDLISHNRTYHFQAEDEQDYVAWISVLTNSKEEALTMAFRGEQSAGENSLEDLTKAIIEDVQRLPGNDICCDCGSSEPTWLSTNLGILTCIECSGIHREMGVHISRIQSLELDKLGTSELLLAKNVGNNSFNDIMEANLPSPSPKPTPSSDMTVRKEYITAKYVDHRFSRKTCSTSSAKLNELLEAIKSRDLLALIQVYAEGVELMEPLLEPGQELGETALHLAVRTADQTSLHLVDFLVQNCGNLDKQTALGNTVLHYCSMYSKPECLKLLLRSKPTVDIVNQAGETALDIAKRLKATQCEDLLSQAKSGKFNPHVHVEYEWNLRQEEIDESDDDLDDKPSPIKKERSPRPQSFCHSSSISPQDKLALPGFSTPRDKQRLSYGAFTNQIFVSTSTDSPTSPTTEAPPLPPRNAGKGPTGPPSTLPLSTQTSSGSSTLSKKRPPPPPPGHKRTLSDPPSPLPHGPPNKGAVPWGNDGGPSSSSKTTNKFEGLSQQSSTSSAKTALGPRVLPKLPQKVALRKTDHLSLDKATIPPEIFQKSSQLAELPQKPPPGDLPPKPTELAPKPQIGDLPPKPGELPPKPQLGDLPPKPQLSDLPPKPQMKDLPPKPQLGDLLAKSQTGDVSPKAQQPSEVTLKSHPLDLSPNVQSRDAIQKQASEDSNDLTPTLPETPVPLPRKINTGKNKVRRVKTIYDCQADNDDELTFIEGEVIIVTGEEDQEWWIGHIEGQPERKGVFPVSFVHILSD

[6] = target: T3, Carboxy-terminal domain RNA polymerase II polypeptide A small phosphatase 1 (Homo sapiens, UniProt Q9GZU7); test: inhibitors of CTDSP1, concentration-response testing, biochemical assay, absorbance-based, actives from ultra-high-throughput screening (AID 540297); assay type: functional
T3 sequence (Q9GZU7 whole entry): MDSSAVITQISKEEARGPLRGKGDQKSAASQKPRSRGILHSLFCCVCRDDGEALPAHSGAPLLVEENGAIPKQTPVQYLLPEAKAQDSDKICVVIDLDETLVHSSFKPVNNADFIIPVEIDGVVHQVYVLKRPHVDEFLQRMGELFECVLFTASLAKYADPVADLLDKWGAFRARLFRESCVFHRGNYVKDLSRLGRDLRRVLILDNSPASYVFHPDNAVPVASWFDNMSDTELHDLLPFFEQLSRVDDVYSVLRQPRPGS

[7] = target: Ubiquitin carboxyl-terminal hydrolase BAP1 (Homo sapiens, UniProt Q92560); test: BAP1 deubiquitinase inhibitors, dose response, biochemical (AID 714); assay type: functional
[8] = target: Glyceraldehyde-3-phosphate dehydrogenase (Homo sapiens, UniProt P04406)
Sequence of Glyceraldehyde-3-phosphate dehydrogenase (P04406 whole entry): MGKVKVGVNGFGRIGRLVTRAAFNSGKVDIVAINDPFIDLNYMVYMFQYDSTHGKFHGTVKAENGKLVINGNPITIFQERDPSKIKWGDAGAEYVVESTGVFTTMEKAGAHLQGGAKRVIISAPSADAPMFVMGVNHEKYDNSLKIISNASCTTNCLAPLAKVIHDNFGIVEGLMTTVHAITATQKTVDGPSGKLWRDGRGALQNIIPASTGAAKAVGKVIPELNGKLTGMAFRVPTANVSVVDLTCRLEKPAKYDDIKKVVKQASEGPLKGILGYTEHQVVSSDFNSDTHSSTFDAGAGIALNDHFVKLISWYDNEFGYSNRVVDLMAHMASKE

Bcl-2-related protein A1 [9] = target: T4, Bcl-2-related protein A1 (Mus musculus, UniProt Q07440); test: Bfl-1 inhibitors blocking BH3 peptide binding, confirmation, biochemical, TR-FRET, mouse Bfl-1 (AID 621);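 also: TR-FRET binding of GST-Bfl-1 to FITC-labelled Bid peptide via terbium antibody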
T4 sequence (Q07440 whole entry): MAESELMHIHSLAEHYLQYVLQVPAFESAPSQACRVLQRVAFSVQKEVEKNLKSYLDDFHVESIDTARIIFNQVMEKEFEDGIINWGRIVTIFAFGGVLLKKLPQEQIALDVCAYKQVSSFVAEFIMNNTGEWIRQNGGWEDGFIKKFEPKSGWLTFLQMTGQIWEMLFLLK

Bcl-2-related protein A1 [10] = target: T4, Bcl-2-related protein A1; test: Bfl-1 binding inhibitors, SAR follow-up, biochemical, fluorescence polarization (AID 1070)
[11] = M. tuberculosis growth inhibition, HTS (AID 449762); assay type: functional
[12] = target: T5, Mannose-6-phosphate isomerase (Homo sapiens, UniProt P34949); test: human PMI inhibitors, high substrate, primary screen, biochemical, fluorescence intensity, high mannose 6-phosphate (AID 1220)
T5 sequence (P34949 whole entry): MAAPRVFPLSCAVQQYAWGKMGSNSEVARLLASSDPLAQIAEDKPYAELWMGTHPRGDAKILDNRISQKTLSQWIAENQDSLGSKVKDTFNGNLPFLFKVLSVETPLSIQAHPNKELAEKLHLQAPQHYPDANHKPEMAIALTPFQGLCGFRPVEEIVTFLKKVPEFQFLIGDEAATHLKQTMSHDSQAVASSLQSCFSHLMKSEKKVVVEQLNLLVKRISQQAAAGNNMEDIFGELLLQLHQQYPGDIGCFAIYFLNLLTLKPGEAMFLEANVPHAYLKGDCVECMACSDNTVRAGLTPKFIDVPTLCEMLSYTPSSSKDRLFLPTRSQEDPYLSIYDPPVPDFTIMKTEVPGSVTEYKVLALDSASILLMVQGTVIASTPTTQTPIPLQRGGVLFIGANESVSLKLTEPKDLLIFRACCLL

[13] = cytotoxicity in KRAS-transformed pancreatic duct cells, primary screen, cell-based, fluorescence, HTS (AID 431); assay type: functional; conditions: Homo sapiens;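 also: cell line used: HPDE-C7K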
[14] = target: Mitogen-activated protein kinase 10 (Homo sapiens, UniProt P53779); test: Dose response biochemical screening assay for inhibitors of c-Jun N-Terminal Kinase 3 (JNK3). [Related pubchem assays: 746 ]
Sequence of Mitogen-activated protein kinase 10 (P53779 whole entry): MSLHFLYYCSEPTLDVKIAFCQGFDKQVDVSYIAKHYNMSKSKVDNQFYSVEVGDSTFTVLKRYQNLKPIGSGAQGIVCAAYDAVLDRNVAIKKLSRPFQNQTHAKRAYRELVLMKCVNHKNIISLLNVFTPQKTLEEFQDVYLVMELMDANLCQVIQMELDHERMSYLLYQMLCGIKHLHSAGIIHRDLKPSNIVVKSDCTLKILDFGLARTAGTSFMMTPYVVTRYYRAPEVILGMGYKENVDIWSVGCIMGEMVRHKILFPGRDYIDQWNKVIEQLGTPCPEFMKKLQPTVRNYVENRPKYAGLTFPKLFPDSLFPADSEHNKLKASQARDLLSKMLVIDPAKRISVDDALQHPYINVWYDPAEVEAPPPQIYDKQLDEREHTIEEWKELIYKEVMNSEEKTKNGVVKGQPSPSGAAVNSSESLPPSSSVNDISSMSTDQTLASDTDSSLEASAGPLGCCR

[15] = cytotoxicity in HPDE-C7 cells, cell-based, fluorescence, HTS (AID 430); assay type: functional; conditions: Homo sapiens
Genome polyprotein = Genome polyprotein (dengue virus type 2, UniProt P29990); test: Dengue-2 NS5 methyltransferase inhibitors, primary screen, biochemical, confirmation dose response (AID 588689); assay type: functional
[16] = target: T6, Sphingosine 1-phosphate receptor 2 (Homo sapiens, UniProt O95136); test: Dose Response Cell Based Assay for Antagonists of the S1P2 Receptor. [Related pubchem assays: 856, 736 ]; assay type: functional
T6 sequence (O95136 whole entry): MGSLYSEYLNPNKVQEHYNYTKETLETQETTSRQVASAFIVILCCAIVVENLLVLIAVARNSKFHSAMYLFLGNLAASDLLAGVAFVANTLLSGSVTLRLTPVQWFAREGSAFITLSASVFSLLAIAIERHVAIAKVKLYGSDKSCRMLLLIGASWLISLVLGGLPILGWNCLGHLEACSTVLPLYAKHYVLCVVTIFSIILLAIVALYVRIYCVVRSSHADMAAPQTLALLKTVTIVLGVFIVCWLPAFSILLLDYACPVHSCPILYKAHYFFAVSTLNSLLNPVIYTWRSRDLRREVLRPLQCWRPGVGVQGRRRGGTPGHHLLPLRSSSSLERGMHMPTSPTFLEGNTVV

Vero = Vero cell cytotoxicity, cytotoxicity control for flavivirus capping enzyme inhibitors (AID 588742); assay type: functional; conditions: Chlorocebus sabaeus
[17] = inhibitors of PGC1a acetylation in cells, dose response, cell-based, cherry-picked samples (AID 720514); assay type: functional;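 also: potency may reflect raised or lowered acetylation signal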
[18] = target: Glucose-6-phosphate 1-dehydrogenase (Homo sapiens, UniProt P11413); test: human G6PD enzyme inhibitors, dose response, selectivity assay for P. falciparum G6PD inhibitor project, biochemical, fluorescence (AID 504792); assay type: functional
Sequence of Glucose-6-phosphate 1-dehydrogenase (P11413 whole entry): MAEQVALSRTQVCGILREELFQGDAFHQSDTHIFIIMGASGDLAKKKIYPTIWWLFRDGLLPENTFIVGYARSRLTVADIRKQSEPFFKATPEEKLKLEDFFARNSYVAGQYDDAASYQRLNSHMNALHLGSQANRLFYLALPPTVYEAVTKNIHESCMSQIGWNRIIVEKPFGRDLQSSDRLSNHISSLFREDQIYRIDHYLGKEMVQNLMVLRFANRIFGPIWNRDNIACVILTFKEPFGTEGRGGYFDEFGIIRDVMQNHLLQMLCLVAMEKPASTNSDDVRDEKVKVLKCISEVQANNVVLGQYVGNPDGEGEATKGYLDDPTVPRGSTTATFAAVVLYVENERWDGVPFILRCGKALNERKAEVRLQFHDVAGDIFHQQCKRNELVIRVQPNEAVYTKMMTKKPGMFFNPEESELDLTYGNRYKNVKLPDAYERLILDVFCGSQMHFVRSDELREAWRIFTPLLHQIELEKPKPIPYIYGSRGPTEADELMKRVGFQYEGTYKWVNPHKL

Ephrin type-A receptor 4 = Ephrin type-A receptor 4 (Mus musculus, UniProt Q03137); test: inhibitors of EphA4 binding to KYL peptide, primary screen, biochemical, colorimetric, mouse EphA4 (AID 689); assay type: functional
Streptococcus = test: Group A Streptococcus viability loss, dose response, counter-screen for streptokinase expression inhibitor project, luminescence, BacTiterGlo (AID 1915); assay type: functional, organism-based;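 also: potency for reduction of bacterial viability or growth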
Streptokinase A = target: T7, Streptokinase A (Streptococcus pyogenes serotype M1, UniProt P10520); test: S. pyogenes streptokinase expression inhibitors, potency, dose response, plasminogen activation absorbance, OD405 (AID 1914); assay type: functional, Streptococcus pyogenes M1 GAS;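 also: secreted streptokinase activity via plasminogen activation per viability signal from cell pellet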
T7 sequence (P10520 whole entry): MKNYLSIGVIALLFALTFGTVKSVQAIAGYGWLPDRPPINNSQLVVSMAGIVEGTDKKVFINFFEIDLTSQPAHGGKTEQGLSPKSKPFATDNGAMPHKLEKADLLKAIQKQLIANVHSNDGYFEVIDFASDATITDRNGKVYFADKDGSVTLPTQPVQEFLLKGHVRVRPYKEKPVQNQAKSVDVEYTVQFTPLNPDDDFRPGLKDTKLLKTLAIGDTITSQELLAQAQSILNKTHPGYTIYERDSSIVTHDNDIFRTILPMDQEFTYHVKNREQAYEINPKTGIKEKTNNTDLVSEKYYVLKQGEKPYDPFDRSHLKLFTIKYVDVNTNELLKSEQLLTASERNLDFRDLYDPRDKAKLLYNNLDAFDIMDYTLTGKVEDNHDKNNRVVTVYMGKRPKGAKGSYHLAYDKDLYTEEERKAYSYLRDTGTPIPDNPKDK

[19] = system: Streptococcus sp. 'group A'; test: growth inhibition of control SK(-) GAS strain, dose response, counter-screen for streptokinase expression inhibitor project, luminescence, kanamycin, BacTiterGlo, confirmation (AID 1900); assay type: functional, organism-based
[20] = target: T6, Sphingosine 1-phosphate receptor 2; test: Dose Response Cell Based Assay for Agonists of the S1P2 Receptor. [Related pubchem assays: 729, 736, 843 ]; assay type: functional
[21] = Luminescence Cell-Based Dose Retest to Confirm Inhibitors of Cancer Stem Cells. [Related pubchem assays (depositor defined):AID2717, AID2721]; assay type: functional; conditions: Homo sapiens

Sequence of Cytochrome P450 2C19 (P33261 whole entry): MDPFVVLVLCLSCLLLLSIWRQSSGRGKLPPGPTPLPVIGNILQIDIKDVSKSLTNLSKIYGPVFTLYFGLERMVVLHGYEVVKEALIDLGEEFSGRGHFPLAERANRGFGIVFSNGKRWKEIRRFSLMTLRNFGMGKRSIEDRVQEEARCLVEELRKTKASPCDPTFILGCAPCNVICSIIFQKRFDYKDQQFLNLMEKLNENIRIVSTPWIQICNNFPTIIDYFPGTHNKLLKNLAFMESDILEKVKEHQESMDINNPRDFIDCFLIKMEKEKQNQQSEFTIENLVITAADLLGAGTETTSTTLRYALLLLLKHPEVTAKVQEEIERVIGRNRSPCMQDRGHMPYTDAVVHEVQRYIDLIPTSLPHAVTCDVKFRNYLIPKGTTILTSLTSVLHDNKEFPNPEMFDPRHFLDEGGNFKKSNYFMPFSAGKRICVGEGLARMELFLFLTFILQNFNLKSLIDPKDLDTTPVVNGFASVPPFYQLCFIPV
Sequence of Cytochrome P450 3A4 (P08684 whole entry): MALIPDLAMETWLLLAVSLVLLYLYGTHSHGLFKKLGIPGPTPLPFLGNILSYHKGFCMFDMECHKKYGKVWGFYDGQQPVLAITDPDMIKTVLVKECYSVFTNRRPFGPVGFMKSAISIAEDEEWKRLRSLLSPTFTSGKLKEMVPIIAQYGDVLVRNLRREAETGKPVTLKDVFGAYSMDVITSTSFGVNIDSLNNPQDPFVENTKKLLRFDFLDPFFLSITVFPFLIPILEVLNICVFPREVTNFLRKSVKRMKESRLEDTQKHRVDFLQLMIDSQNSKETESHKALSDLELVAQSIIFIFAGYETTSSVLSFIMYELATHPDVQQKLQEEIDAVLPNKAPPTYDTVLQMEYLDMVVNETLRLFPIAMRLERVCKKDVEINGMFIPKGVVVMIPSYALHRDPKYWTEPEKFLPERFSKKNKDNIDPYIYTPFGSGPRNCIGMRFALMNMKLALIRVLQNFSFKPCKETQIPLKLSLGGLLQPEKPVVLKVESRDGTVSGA

C=C/C1=C/Cc2ccccc2C(C[N+](=O)[O-])C(C(=O)OC)(C(=O)OC)C1 (centres undefined)
AC50 (Cytochrome P450 3A4): 3.16 µM (inconclusive)
AC50 (Cytochrome P450 2C19): 7.94 µM (inconclusive)

COc1ccc(NC(=O)c2ccc(C)cc2)c(OC)c1
EC50 [1]: 3.78 µM (active)

O=C(N/N=C/C=C/c1ccc([N+](=O)[O-])cc1)c1cccs1
EC50 [2]: 53.6 µM (active)
EC50 [3]: > 300 µM (not active)
IC50 [4]: 6.61 µM (active)
IC50 [5]: 20.7 µM (inactive)
IC50 [6]: 4.28 µM (active)

N#Cc1c(NC(=O)CCN2C(=O)c3ccccc3C2=O)oc(-c2ccccc2)c1-c1ccccc1
IC50 [7]: > 50 µM (not active)

COC(=O)c1cc(C)nc(S(C)(=O)=O)n1
IC50 [8]: > 100 µM (not active)
IC50 (Bcl-2-related protein A1 [9]): > 100 µM (not active)
IC50 (Bcl-2-related protein A1 [10]): > 100 µM (not active)

CN(C(=O)COC(=O)/C=C/c1ccc(Cl)c(Cl)c1)c1c(N)n(Cc2ccccc2)c(=O)[nH]c1=O
IC50 [11]: > 100 µM (active)

COc1ccc(C(=O)CNc2ccc3ccccc3c2)cc1
IC50 [12]: > 50 µM (not active)

CC(=O)Nc1cc(OC(C)=O)c2nonc2c1OC(C)=O
EC50 [13]: 6.32 µM (active)
IC50 [14]: 46.6 µM (not active)
EC50 [15]: 5.65 µM (active)
IC50 (Genome polyprotein): 38 µM (active)
IC50 [16]: 6.21 µM (active)
CC50 (Vero): 12.6 µM (active)
AC50 [17]: 4.89 µM (active)
IC50 [18]: > 80 µM (inactive)

COc1ccc(C(=O)CN2CCOCC2)cc1F
IC50 (Ephrin type-A receptor 4): > 100 µM (not active)

Clc1ccc(-c2ccc(/C=N/Nc3cc(N4CCOCC4)nc(N4CCOCC4)n3)o2)cc1
EC50 (Streptococcus): 17.1 µM (active)
EC50 (Streptokinase A): > 150 µM (not active)
EC50 [19]: 19.4 µM (active)
EC50 [20]: 10.8 µM (not active)
CC50 (Vero): 34.6 µM (active)
AC50 [21]: 1.73 µM (active)
